Data on 86 compounds can be found in PubChem BioAssay AID588780 (Sanford-Burnham Center for Chemical Genomics, 2011).

The source made the active and inactive calls.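 The calls were made as follows: active = compounds whose fitted half-maximal concentration in the cell-protection dose series is at or below a set limit; inactive = the rest.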

The term IC50 denotes the concentration needed to halve the response being measured.

The experiment concerns H9c2 cardiomyocytes, 2-deoxyglucose stress, ATP luminescence, 2 h. The experiment in a line: protection of cardiomyocytes from 2-deoxyglucose injury, dose response, cell-based, 2-deoxyglucose stress, uHTS hits (AID 588780).
On to `COc1ccc(NC(=O)CCCc2nc3ccccc3c(=O)[nH]2)cc1Cl`, for which the IC50 was > 79 µM (inactive).

As to `CCOc1ccc(NCc2cc3c(C(C)(C)C)nn(-c4ccccc4)c3[nH]c2=O)cc1`, the IC50 was > 79 µM (inactive).

In the case of `Nc1ccc(-c2n[nH]c(=O)c3ccccc23)cc1N`, the IC50 was > 79 µM (inactive).

As to `CCOc1ccc2[nH]c(=O)c(CN(CCO)C(c3nnnn3C3CCCCC3)C(C)C)cc2c1` (stereo unspecified), the IC50 was > 79 µM (inactive).

As to `COC(=O)c1cc(NC(=O)c2cc3ccccc3o2)cc(C(=O)OC)c1`, the IC50 was 20.5 µM.

For `Cc1cccc(OCCn2nc(C(=O)O)c3ccccc3c2=O)c1`, the IC50 was > 79 µM (inactive).

For the compound `O=c1c2ccccc2oc2nc(-c3ccco3)n(Cc3ccccc3)c(=O)c12`, the IC50 is > 79 µM (inactive).

`Cc1nn(-c2ccccc2)c(C)c1/C=N/NC(=O)c1cc(C2CC2)[nH]n1`: the IC50 was 12.5 µM.

With `O=[N+]([O-])c1ccc(Nc2nc(N/N=C/c3cccc(F)c3)nc(N3CCCC3)n2)cc1`, the IC50 was > 79 µM (inactive).

As to `COc1ccc(-c2nnc3sc(-c4ccco4)nn23)cc1OC`, the IC50 is > 79 µM (inactive).

As for `CCN(CC)CCNC(=O)CCc1n[nH]c(=O)c2ccccc12`, the IC50 is > 79 µM (inactive).

On to `Cc1c(Cl)cnc(NC(=O)COC(=O)c2ccc([N+](=O)[O-])s2)c1Cl`, for which the IC50 is > 79 µM (inactive).

As to `CCOC(=O)c1ccccc1OCc1cc(/C=N/NC(=O)c2cccnc2)ccc1OC`, the IC50 was 10.7 µM.

As to `O=C(Nc1nc(-c2ccccn2)cs1)c1cc(S(=O)(=O)N2CCOCC2)ccc1F`, the IC50 was > 79 µM (inactive).

Consider `Cc1nc(N2CCN(c3ccccn3)CC2)c2c(C)c(C(=O)Nc3ccc(F)cc3)sc2n1`, for which the IC50 was > 79 µM (inactive).

On to `COc1cc(/C=N/NC(=O)c2cccnc2)ccc1OCC(=O)Nc1ccccc1Cl`, for which the IC50 was > 79 µM (inactive).

Take `O=c1[nH]c2cccnc2c2ccsc12`: the IC50 is > 79 µM (inactive).

Turning to `Cc1ccc(-n2cc(-c3ccccc3)c3c(N4CCOCC4)ncnc32)cc1`, the IC50 was > 79 µM (inactive).

Consider `O=S(=O)(c1ccccc1)N1CCN(c2nc(-c3cccnc3)nc3ccccc23)CC1`, for which the IC50 was 12.4 µM.

Consider `Cc1ccc(-c2csc(N3CCC[C@@H]3C(=O)NCCn3c(-c4ccncc4)nc4ccccc43)n2)cc1`, for which the IC50 is > 79 µM (inactive).

`CC(=O)Nc1ccc(Nc2nc(-c3sc(NC(C)=O)nc3C)cs2)cc1`: the IC50 was 14.4 µM.

Consider `NC(=O)c1cccc(Nc2nc(C(N)CCc3ccccc3)cs2)n1` (stereo unspecified), for which the IC50 is > 79 µM (inactive).

Take `COCCn1c(=NC(=O)c2nc3ccccc3s2)sc2cc(S(C)(=O)=O)ccc21`: the IC50 is 28.3 µM.

As to `COc1ccc(Cl)cc1NC(=O)CCS(=O)(=O)c1cc2c(cc1C)NC(=O)CO2`, the IC50 is 21.5 µM.

Turning to `O=C(COc1cccc2c1CCNC2=O)Nc1cccc(F)c1`, the IC50 is 28 µM.

As to `COc1cc(C(=O)NCCCNc2nc3cc(C)cc(C)c3cc2C#N)cc(OC)c1OC`, the IC50 was 45.6 µM (inactive).

Turning to `CS(=O)(=O)Nc1cccc(NC(=O)c2cccc3c(-c4cccc(C(N)=O)c4)coc23)c1`, the IC50 is > 79 µM (inactive).

Regarding `Cc1cc(NC(=O)C2CCCCC2)nc2c1c(=O)oc1ccccc12`, the IC50 was 15.3 µM.

As to `Cn1c(=O)n(CCc2ccccc2)c(=O)c2c1nc1n2CCCN1Cc1ccccc1`, the IC50 is 14.1 µM.

Consider `COc1ccccc1-c1cc2nc(-c3ccccc3)cc(N3CCN(C(=O)c4ccco4)CC3)n2n1`, for which the IC50 is > 79 µM (inactive).

Regarding `O=C(NN=Cc1cccc([N+](=O)[O-])c1)c1cc(-c2cccnc2)nc2ccccc12`, the IC50 is > 79 µM (inactive).

On to `COc1cc2c(cc1OC)C(COc1ccc3c(C)cc(=O)oc3c1)N(C(=O)c1ccco1)CC2` (stereo unspecified), for which the IC50 is 10.1 µM.

For the compound `O=C(CNC(=O)c1ccc(F)cc1)N/N=C/c1cc(Br)ccc1OC(=O)/C=C/c1ccco1`, the IC50 was > 79 µM (inactive).

Take `CCOC(=O)c1cccc(Nc2nc(-c3cccnc3)nc3ccccc23)c1`: the IC50 was 29.1 µM.

As to `CCOc1ccc(NC(=O)c2cc3c(=O)n(C)c4ccccc4c3n2C)cc1`, the IC50 was 11.5 µM.

For the compound `COc1ccc(CNn2c(-c3cccs3)nc3ccccc3c2=O)cc1OC`, the IC50 is 11.8 µM.

`COc1ccc(NC(=O)C(OC(=O)c2ccc([N+](=O)[O-])o2)c2ccccc2)cc1Cl` (stereo unspecified): the IC50 is > 79 µM (inactive).

In the case of `Cc1c(C(=O)Nc2ccc3nc(N4CCOCC4)sc3c2)oc2ccccc12`, the IC50 was > 79 µM (inactive).

As for `CNS(=O)(=O)c1cc2c3c(cccc3c1)C(=O)NC2=O`, the IC50 is > 79 µM (inactive).

With `CC(=O)NC(CCc1ccc(Cl)c(Cl)c1)c1cccc(O)c(=O)c1` (stereo unspecified), the IC50 was > 79 µM (inactive).

For `O=C(CSc1nc2ccccc2c(=O)[nH]1)N1CCCCC1`, the IC50 is > 79 µM (inactive).

With `COc1cc2oc3cc(C#Cc4ccc(N)cc4)ccc3c(=O)c2cc1OC`, the IC50 was > 79 µM (inactive).

For the compound `COc1cc(C(=O)N/N=C/c2ccc(OC(=O)c3ccccc3)c(OC)c2)ccc1O`, the IC50 is > 79 µM (inactive).

In the case of `Cc1cccc(OCCn2c(NC(=O)c3ccco3)nc3ccccc32)c1`, the IC50 is 17.8 µM.

As to `COc1ccccc1NS(=O)(=O)c1cc(NC(=O)Cc2n[nH]c(=O)c3ccccc23)ccc1Cl`, the IC50 was 24.5 µM.

Take `CCN(CC(=O)Nc1ccc(OC)cc1)C(=O)c1cc(-c2cccs2)nn1-c1ccccc1`: the IC50 is 9.06 µM.

For the compound `CCC(=O)Nc1cccc(-c2nnc(-c3cccc(NC(=O)CC)c3)o2)c1`, the IC50 was > 79 µM (inactive).

Regarding `O=C(N/N=C/c1ccccn1)c1cc(C2CC2)nc2ccccc12`, the IC50 was > 79 µM (inactive).

For `COc1cc(-c2cc(NC=O)c3ncc(-c4ccc(C(C)=O)cc4)n3c2)cc(OC)c1OC`, the IC50 is > 79 µM (inactive).

Turning to `O=C(Nc1nnc(-c2ccc3c(c2)CCCC3)o1)c1ccccc1`, the IC50 is 23.3 µM.

Take `O=C1c2ccccc2NC(c2cn[nH]c2-c2ccccc2)N1O` (stereo unspecified): the IC50 was > 79 µM (inactive).

For the compound `Nc1ccc2nc(-c3cccs3)[nH]c2c1`, the IC50 was > 79 µM (inactive).

With `O=CNc1cc(-c2ccc(C(=O)NC3CC3)cc2)cn2c(-c3ccc(F)c(Cl)c3)cnc12`, the IC50 was > 79 µM (inactive).

Regarding `Cc1ccc(-c2n[nH]c(=O)c3ccccc23)cc1S(=O)(=O)NCCN1CCOCC1`, the IC50 is > 79 µM (inactive).

Take `O=C(Nc1nnc(C2CC2)s1)c1cc(-c2ccccc2)nn1-c1ccccc1`: the IC50 was > 79 µM (inactive).

As for `O=c1[nH]nc(Cc2ccccc2)c2ccccc12`, the IC50 is > 79 µM (inactive).

For `O=C(Nc1nnc(-c2ccco2)o1)c1ccc2ccccc2c1`, the IC50 is > 79 µM (inactive).

For `C[C@H](CO)N1C[C@H](C)[C@@H](CN(C)S(=O)(=O)c2ccccc2)Oc2ccc(NC(=O)Nc3ccccc3)cc2C1=O`, the IC50 is 24.2 µM.

Regarding `Cc1cc(CNC(=O)COC(=O)Cn2[nH]c(=O)c3ccccc3c2=O)cc(C)c1O`, the IC50 was 15.4 µM.

`C/C(=N\NC(=O)c1ccccc1-n1cccc1)c1ccccn1`: the IC50 is > 79 µM (inactive).

For `CCOc1cccc(-c2nn3c(-c4ccccn4)nnc3s2)c1`, the IC50 is > 79 µM (inactive).

As for `COc1ccc(-c2cc(C(=O)NC(C)c3ccccn3)c3ccccc3n2)cc1OC` (stereo unspecified), the IC50 was 13 µM.

On to `CN(C)CCNc1ccc(-c2n[nH]c(=O)c3ccccc23)cc1[N+](=O)[O-]`, for which the IC50 was > 79 µM (inactive).

Take `CNC(=O)c1cccc(NC(=O)c2cc(-c3ccccc3)nc3c2cnn3C(C)C)c1`: the IC50 was > 79 µM (inactive).

On to `Cc1ccc2cc3c(NC(=O)c4cccnc4)nn(C)c3nc2c1`, for which the IC50 is > 79 µM (inactive).

`CC(C)C(=O)N1CCN(c2ccc(NC(=O)COc3ccccc3[N+](=O)[O-])cc2)CC1`: the IC50 is > 79 µM (inactive).

For the compound `CCOC(=O)N1CCN(C(=O)CSc2nc3c(cnn3-c3ccc(C)cc3)c(=O)[nH]2)CC1`, the IC50 is > 79 µM (inactive).

For the compound `O=C(Nc1cccc(N=Cc2cc(Br)cc(Br)c2O)c1)c1ccco1`, the IC50 is > 79 µM (inactive).

For the compound `COc1ccccc1CN(C(=O)CNC(=O)c1ccco1)C(C(=O)NCC1CCCO1)c1ccccc1` (stereo unspecified), the IC50 was 11.6 µM.

`CCc1nc2ccccc2c(C(=O)OCc2nc3ccccc3c(=O)[nH]2)c1C`: the IC50 is 23.1 µM.

Regarding `COc1ccc(-c2ccc3c(c2)S(=O)(=O)c2cccc(C(=O)NC[C@@H]4CCCO4)c2C3=O)cc1OC`, the IC50 was 12.8 µM.

Regarding `CC(OC(=O)c1cc2c(ccc3ccccc32)oc1=O)c1nc2ccccc2s1` (stereo unspecified), the IC50 is 15.7 µM.

Regarding `COc1ccc(OC)c(NC(=O)COC(=O)c2c3c(nc4ccccc24)CCCC3)c1`, the IC50 is > 79 µM (inactive).

For the compound `COc1ccccc1C(=O)Nc1nc(-c2ccc3c(c2)OCCO3)cs1`, the IC50 was > 79 µM (inactive).

In the case of `COc1ccc(Cc2n[nH]c(=O)c3ccccc23)cc1OC`, the IC50 is > 79 µM (inactive).

For `CC(=NCCCn1ccnc1)c1c(-c2ccccc2)[nH]n(-c2nc3ccccc3s2)c1=O`, the IC50 is > 79 µM (inactive).

As for `Cc1ccc(S(=O)(=O)N2CCN(C(=O)CCc3nc4ccccc4c(=O)[nH]3)CC2)c(C)c1`, the IC50 was > 79 µM (inactive).

Turning to `OC1CCN(c2c3c(nc4cc(-c5cccc(F)c5)nn24)CCCC3)CC1`, the IC50 is 23.6 µM.

For the compound `COc1ccc(Nc2nnc(-c3ccc(O)cc3)c3ccccc23)cc1C(N)=O`, the IC50 is > 79 µM (inactive).

With `Cc1cc(C)c2ccc(NN)nc2c1O`, the IC50 is > 79 µM (inactive).

In the case of `Cc1cc(C)cc(N(CCC#N)C(=O)COC(=O)Cn2[nH]c(=O)c3ccccc3c2=O)c1`, the IC50 is > 79 µM (inactive).

As to `CNc1ccccc(C(=O)/C=C/c2ccccc2OC)c1=O`, the IC50 is > 79 µM (inactive).

On to `NC(=O)c1oc2ccccc2c1NC(=O)c1ccco1`, for which the IC50 was 29.4 µM.

In the case of `Cc1ccc2cc(C#N)c(N3CCN(C(=O)c4cccs4)CC3)nc2c1`, the IC50 was > 79 µM (inactive).

As for `O=C(O)c1nn(CCOc2ccccc2F)c(=O)c2ccccc12`, the IC50 is 25.7 µM.

Turning to `COc1ccc(-c2cc(C(=O)Nc3ccccc3N3CCOCC3)c3ccccc3n2)cc1OC`, the IC50 is > 79 µM (inactive).
